{"source": "patent US10196356B2", "about": "“Mixed disulfide conjugates of thienopyridine compounds and uses thereof” (The Regents of the University of Michigan, priority 2013, dated 2019)", "key": {"[1]": {"test_system": "platelets (P2Y12 receptor)", "assay": "Ex vivo anti-platelet activity of the mixed disulfide conjugates (ADP-induced aggregation, aggregometer)", "type": "cell-based, New Zealand white rabbits", "settings": "10 μM ADP; for inhibition of platelet aggregation, conjugate itself: not treated with GSH", "procedure": "The mixed disulfide conjugates were prepared and purified from the reaction mixtures in the presence of 0.3 mM CPT and NPT, along with three control samples containing either 1 mM GSH, no thiol reductant or no G6PD. All samples were re-suspended in 0.5 ml PPP, some of which were treated to 1 mM GSH to release the AM. Platelet aggregation was initiated by the addition of 10 μM ADP and recorded with an aggregometer. The percentage of aggregation was normalized to that of PRP and averaged over four separate measurements. For details, see Materials and Methods. Legend: PRP, untreated platelet-rich plasma; GSH, 1 mM GSH in PRP; −G6PD, metabolites produced in the absence of G6PD; —SH, metabolites produced in the absence of any thiol reductants; GSH, metabolites produced in the presence of 1 mM GSH; CPT, metabolites produced in the presence of 0.3 mM CPT; CPT+GSH, metabolites produced in the presence of 0.3 mM CPT and then treated with 1 mM GSH; NPT, metabolites produced in the presence of 0.3 mM NPT; NPT+GSH, metabolites produced in the presence of 0.3 mM NPT and then treated with 1 mM GSH.\nIn order to generate sufficient quantities of the mixed disulfide conjugates, the metabolism of 2-oxoclopidogrel was performed in 2-ml reaction mixtures containing 1 mg/ml HLM, 0.1 mM 2-oxoclopidogrel, the NADPH-regenerating system, and 0.3 mM CPT or NPT or 1 mM GSH. The reaction was initiated by the addition of 10 units G6PD and incubated at 37° C. for 50 min. Two control samples were prepared in parallel. […] After an incubation of 50 min, the reaction mixtures were centrifuged at 13,000×g to remove the HLMs. The supernatants were loaded onto SPE C18 cartridges to enrich the mixed disulfide conjugates. After extensive washing with water to remove salts and other water-soluble metabolites, the conjugate samples were eluted with 2 ml of methanol. The methanolic fractions were dried using a Speedvac concentrator and the dried samples were then re-suspended in 1 ml of platelet-poor plasma (PPP). Prior to the anti-platelet activity assays, the re-suspended conjugates were divided into two equal volumes (0.5 ml each), one of which was treated with 1 mM GSH at 37° C. for 30 min to generate the AM. Both samples were then placed on ice until use.\nThe procedures used to determine ex vivo anti-platelet activity were previously reported (see, e.g., Abell L M and Liu E C (2011) J Pharm Exp Ther 339(2):589-596).\nMale New Zealand white rabbits (2.2-2.9 kg) were used as blood donors. Whole blood was drawn from a central ear artery into a plastic syringe containing 3.7% sodium citrate as the anticoagulant (1:10 volume ratio of citrate to blood). A whole blood cell count was determined with a Medonic CA620 hematology analyzer (Clinical Diagnostic Solutions, Inc., Plantation, Fla., USA). Platelet-rich plasma (PRP), the supernatant present after centrifugation of whole blood at 100×g for 10 min, was diluted with PPP to achieve a platelet count of approximately 300,000/μl. Platelet-poor plasma was prepared by centrifuging the remaining blood at 1,500×g for 10 min and discarding the bottom cellular layer. The diluted PRP was divided into 0.5 ml samples, centrifuged again at 170×g for 10 mins, and the resulting supernatant was discarded. The platelet pellets were re-suspended in platelet-poor plasma containing the various chemical inhibitors prepared as described previously and incubated with gentle shaking at 37° C. for 60 min to modify the P2Y12 receptor. Ex vivo platelet aggregation was assessed by established nephelometric methods with the use of a 4-channel aggregometer (BioData PAP-4; BioData Corp., Horsham, Pa., USA) by recording the increase in light transmission through a stirred suspension of PRP maintained at 37° C. Platelet aggregation was induced with ADP (10 μM). A subaggregatory concentration of epinephrine (550 nM) was used to prime the platelets before addition of the agonist."}, "platelets": {"test_system": "platelets", "assay": "Platelet aggregation assay with conjugates pre-incubated with GSH (Example III)", "type": "cell-based, rabbits", "settings": "5 μM ADP; for inhibition of platelet aggregation: conjugate incubated with 1 mM GSH 37° C. 30 min, compared with negative control without conjugate", "procedure": "Approximately 20 ml blood was drawn from rabbits and platelets were collected by centrifugation whereas the supernatants were collected as platelet poor plasma (PPP). Prior to the inhibition assay, the conjugates of Clop-CPT and Tic-NPT were dissolved in 0.5 ml PPP and incubated with 1 mM GSH at 37° C. for 30 min to produce the active metabolite. The platelets were then re-suspended gently in the PPP containing the active metabolite. After incubation at 37° C. for one hour, platelet aggregation was initiated by the addition of 5 μM of the agonist ADP. Platelet aggregation was then recorded using an aggregometer."}, "[2]": {"assay": "Kinetics for the reduction of the mixed disulfide conjugates of clopidogrel by GSH (conversion to the AM)", "type": "in vitro ADME", "settings": "for first order rate constant for the loss of the mixed disulfide conjugate: 0.2 mg/ml cytosol, 37° C.; for second order rate constant for the loss of the conjugate: equivalent from pseudo first order with 1 mM GSH, with cytosol", "procedure": "The mixed disulfide conjugates were prepared from the reaction mixtures containing 1 mg/ml HLM, 0.1 mM 2-oxoclopidogrel, the NADPH-regenerating system and various thiol reductants and purified using SPE C18 cartridges as described in Materials and Methods. The purified conjugates were then mixed with 1 mM GSH and 0.2 mg/ml cytosol (when present). The conjugate remaining and the AM formed were analyzed using LC-MS/MS. Legend: (A) reduction of the conjugates of BME (◯), CPT (▪), NAC (▾), DFT (▴), and NPT (□) by 1 mM GSH in the presence of 0.2 mg/ml cytosol. (B) reduction of the CPT conjugate by 1 mM GSH in the presence and absence of 0.2 mg/ml cytosol. Legend: (◯), formation of AM in the absence of cytosol; (Δ), formation of the AM in the presence of cytosol; (●), reduction of the conjugate in the absence of cytosol; (▴), reduction of the conjugate in the presence of cytosol. The solid and dashed lines are non-linear curve fittings to a single exponential function.\nTo examine the reactivity of the mixed disulfide conjugates, the kinetics for the reduction of the mixed disulfide conjugates by GSH were determined. The mixed disulfide conjugates were generated in 1 ml of 50 mM KPi buffer (pH 7.4) buffer containing 1 mg/ml HLM, 0.1 mM 2-oxoclopidogrel and 0.3 or 1 mM thiol reductants. The reaction was incubated at 37° C. for 50 min after initiated by the addition of G6PD. The reaction mixture was then centrifuged at 13,000×g to remove the HLMs and the supernatant was loaded to a pre-conditioned SPE cartridge (C18, 100 mg/1 ml, Agilent Technologies, CA) and the mixed disulfide conjugate was eluted with 2 ml of methanol. The eluent was then dried using a Speedvac concentrator and the dried sample was stored at −80° C. until use. Prior to the kinetic measurements, the dried samples were first re-dissolved in 0.5 ml of 50 mM KPi buffer (pH 7.4) and then equilibrated at 37° C. for 5 min. Small aliquots (1-5 μl) of stock GSH and cytosol (when present) solutions were added to the conjugate samples at 1 mM and 0.2 mg/ml, respectively, to initiate the thiol-disulfide exchange reaction. At designated times, an aliquot of 50 μl of the reaction mixture was withdrawn and mixed with 25 μl of 10% acetic acid in acetonitrile to terminate the thiol-disulfide exchange reaction. The t=0 sample was prepared immediately prior to the addition of GSH. The amounts of the mixed disulfide conjugates and the AM were analyzed using LC-MS/MS as described above."}, "[3]": {"settings": "conjugate treated with 1 mM GSH 37° C. 30 min, normalized to PRP"}, "[4]": {"settings": "1 mM GSH, in the absence of cytosol"}, "[5]": {"settings": "1 mM GSH, in the presence of cytosol (FIG. 5B)"}}, "data": [{"smiles": "COC(=O)[C@H](c1ccccc1Cl)N1CCC2SC(=O)C=C2C1", "note": "(stereo partly drawn) [2-oxoclopidogrel, reference compound]", "values": [{"measurement": "inhibition of platelet aggregation", "setting": "[1]; −G6PD control (non-metabolite components of the reaction mixture)", "result": "did not inhibit platelet aggregation"}]}, {"smiles": "COC(=O)[C@H](c1ccccc1Cl)N1CCC(S)/C(=C\\C(=O)O)C1", "note": "(stereo partly drawn) [AM, reference compound]", "values": [{"measurement": "inhibition of platelet aggregation", "setting": "[1]; sample from HLM reaction mixture containing 1 mM GSH (AM, estimated 1-4 μM)", "result": "~60", "unit": "%"}, {"measurement": "level of inhibition of platelet aggregation relative to the conjugates", "setting": "platelets; positive control: active metabolite generated from HLMs", "result": "approximately the same"}]}, {"smiles": "COC(=O)[C@H](c1ccccc1Cl)N1CCC(SSCCO)C(=CC(=O)O)C1", "note": "(stereo partly drawn) [BME conjugate]", "values": [{"measurement": "first order rate constant for the loss of the mixed disulfide conjugate", "setting": "[2]; 1 mM GSH", "result": 0.07, "unit": "min⁻¹"}, {"measurement": "conjugate remaining after incubation", "setting": "[2]; 40 min, 1 mM GSH, cytosol", "result": "~50", "unit": "%"}, {"measurement": "second order rate constant for the loss of the conjugate", "setting": "[2]", "result": 1.2, "unit": "M⁻¹ s⁻¹"}]}, {"smiles": "COC(=O)C(c1ccccc1Cl)N1CCC(SSc2ccc(Cl)nn2)/C(=C\\C(=O)O)C1", "note": "(stereo not drawn) [Clop-CPT]", "values": [{"measurement": "inhibition of platelet aggregation", "setting": "[1]; [3]", "result": "~50", "unit": "%"}, {"measurement": "inhibition of platelet aggregation, conjugate itself", "setting": "[1]; normalized to PRP", "result": "did not inhibit platelet aggregation"}, {"measurement": "first order rate constant for the loss of the mixed disulfide conjugate", "setting": "[2]; 1 mM GSH", "result": 0.79, "unit": "min⁻¹"}, {"measurement": "rate constant for the formation of the AM", "setting": "[2]; [4]", "result": 0.35, "unit": "min⁻¹"}, {"measurement": "rate constant for the reduction of the conjugate", "setting": "[2]; [4]", "result": 0.39, "unit": "min⁻¹"}, {"measurement": "rate constant for the formation of the AM", "setting": "[2]; [5]", "result": 0.50, "unit": "min⁻¹"}, {"measurement": "rate constant for the reduction of the conjugate", "setting": "[2]; [5]", "result": 0.73, "unit": "min⁻¹"}, {"measurement": "second order rate constant for the loss of the conjugate", "setting": "[2]", "result": 13, "unit": "M⁻¹ s⁻¹"}, {"measurement": "inhibition of platelet aggregation", "setting": "platelets", "result": "approximately 60%"}]}, {"smiles": "COC(=O)[C@H](c1ccccc1Cl)N1CCC(SSc2cc(C)oc2C)C(=CC(=O)O)C1", "note": "(stereo partly drawn) [DFT conjugate]", "values": [{"measurement": "first order rate constant for the loss of the mixed disulfide conjugate", "setting": "[2]; 1 mM GSH", "result": 1.65, "unit": "min⁻¹"}, {"measurement": "second order rate constant for the loss of the conjugate", "setting": "[2]", "result": 28, "unit": "M⁻¹ s⁻¹"}]}, {"smiles": "COC(=O)C(c1ccccc1Cl)N1CCC(SSCC(NC(C)=O)C(=O)O)C(=CC(=O)O)C1", "note": "(stereo not drawn) [NAC conjugate]", "values": [{"measurement": "first order rate constant for the loss of the mixed disulfide conjugate", "setting": "[2]; 1 mM GSH", "result": 0.43, "unit": "min⁻¹"}, {"measurement": "second order rate constant for the loss of the conjugate", "setting": "[2]", "result": 7.2, "unit": "M⁻¹ s⁻¹"}]}, {"smiles": "COC(=O)C(c1ccccc1Cl)N1CCC(SSc2ncccc2[N+](=O)[O-])C(=CC(=O)O)C1", "note": "(stereo not drawn) [NPT conjugate]", "values": [{"measurement": "inhibition of platelet aggregation", "setting": "[1]; [3]", "result": "~70", "unit": "%"}, {"measurement": "inhibition of platelet aggregation, conjugate itself", "setting": "[1]; normalized to PRP", "result": "did not inhibit platelet aggregation"}, {"measurement": "first order rate constant for the loss of the mixed disulfide conjugate", "setting": "[2]; 1 mM GSH", "result": 0.13, "unit": "min⁻¹"}, {"measurement": "second order rate constant for the loss of the conjugate", "setting": "[2]", "result": 2.2, "unit": "M⁻¹ s⁻¹"}]}, {"smiles": "O=C(O)/C=C1/CN(Cc2ccccc2Cl)CCC1SSc1ncccc1[N+](=O)[O-]", "note": "(stereo not drawn) [Tic-NPT, (Z)-2-(1-(2-chlorobenzyl)-4-((3-nitropyridin-2-yl)disulfanyl)piperidin-3-ylidene)acetic acid]", "values": [{"measurement": "inhibition of platelet aggregation", "setting": "platelets", "result": "approximately 60%"}]}]}
